Experimental data published in US20250382305A1 (PTC THERAPEUTICS, INC., priority 2022, published 2025).

Key:
[1] = system: Total ATXN3 (tATXN3) protein; test: Endogenous Total ATXN3 (tATXN3) Protein Assay (MSD immunoassay of cell lysates); type: cell-based; settings: average IC50, total ATXN3 protein in cell lysate after 48 h with compound (Table 1)
In short: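 Cells in DMEM/10% FBS were plated at 10,000 per well onto 7-point, 3.16-fold compound dilutions in duplicate for 48 h at 37° C, then lysed. Total ATXN3 in lysates was measured by MSD sandwich immunoassay: mouse anti-ATXN3 capture, rabbit anti-ATXN3 detection, SULFO-TAG anti-rabbit. Average IC50 was reported in star bins.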

ATXN3 pre-mRNA = test: RT-qPCR Assay to Quantify Exon 4 Skipping in ATXN3 pre-mRNA in Cells; type: cell-based; settings: percent exon 4 skipping in ATXN3 pre-mRNA, RT-qPCR of cell lysates; average IC50
In short: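 Cells plated at 10,000/well onto a 7-point, 3.16-fold DMSO dilution series (duplicates), incubated 24 h at 37 °C, then lysed. Exon 4 skipping measured by one-step RT-qPCR (48 °C RT, 40 cycles); IC50 interpolated from dose-response fit of percent skipping.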

IC50 [1] [nM]	IC50 (ATXN3 pre-mRNA) [nM]	Structure (SMILES)
> 1000	300 to 1000	N[C@@H]1CCC[C@@H]1c1cc2nc(Cl)cc(NCc3cccs3)c2s1 [Compound 9, 2-((1S,2R)-2-aminocyclopentyl)-5-chloro-N-(thiophen-2-ylmethyl)thieno[3,2-b]pyridin-7-amine]
300 to 1000	300 to 1000	N[C@H]1CCC[C@@H]1c1cc2nc(Cl)cc(NCc3cccs3)c2s1 [Compound 10, 2-((1S,2S)-2-aminocyclopentyl)-5-chloro-N-(thiophen-2-ylmethyl)thieno[3,2-b]pyridin-7-amine]
300 to 1000	30 to 300	CCc1c([C@H]2CCC[C@@H]2N)sc2c(NCc3cccs3)cc(Cl)nc12 [Compound 11, 2-((1S,2S)-2-aminocyclopentyl)-5-chloro-3-ethyl-N-(thiophen-2-ylmethyl)thieno[3,2-b]pyridin-7-amine]
> 1000	> 1000	CCc1c([C@@H]2CCC[C@H]2N)sc2c(NCc3cccs3)cc(Cl)nc12 [Compound 12, 2-((1R,2R)-2-aminocyclopentyl)-5-chloro-3-ethyl-N-(thiophen-2-ylmethyl)thieno[3,2-b]pyridin-7-amine]
30 to 300	30 to 300	N[C@H]1CCCC[C@H]1c1sc2c(NCc3cccs3)cc(Cl)nc2c1Cl [Compound 13, 2-((1R,2S)-2-aminocyclohexyl)-3,5-dichloro-N-(thiophen-2-ylmethyl)thieno[3,2-b]pyridin-7-amine]
> 1000	> 1000	N[C@@H]1CCCC[C@@H]1c1sc2c(NCc3cccs3)cc(Cl)nc2c1Cl [Compound 14, 2-((1S,2R)-2-aminocyclohexyl)-3,5-dichloro-N-(thiophen-2-ylmethyl)thieno[3,2-b]pyridin-7-amine]
300 to 1000	300 to 1000	N[C@@H]1CCCO[C@@H]1c1sc2c(NCc3cccs3)cc(Cl)nc2c1Br [Compound 15, 2-((2S,3R)-3-aminotetrahydro-2H-pyran-2-yl)-3-bromo-5-chloro-N-(thiophen-2-ylmethyl)thieno[3,2-b]pyridin-7-amine]
> 1000	> 1000	N[C@@H]1CCCO[C@H]1c1sc2c(NCc3cccs3)cc(Cl)nc2c1Cl [Compound 16, 2-((2R,3R)-3-aminotetrahydro-2H-pyran-2-yl)-3,5-dichloro-N-(thiophen-2-ylmethyl)thieno[3,2-b]pyridin-7-amine]
> 1000	> 1000	N[C@@H]1CCCO[C@@H]1c1sc2c(NCc3cccs3)cc(Cl)nc2c1Cl [Compound 17, 2-((2S,3R)-3-aminotetrahydro-2H-pyran-2-yl)-3,5-dichloro-N-(thiophen-2-ylmethyl)thieno[3,2-b]pyridin-7-amine]
≤ 30	≤ 30	N[C@H]1CCCO[C@@H]1c1sc2c(NCc3cccs3)cc(Cl)nc2c1Cl [Compound 18, 2-[(2S,3S)-3-aminotetrahydropyran-2-yl]-3,5-dichloro-N-(2-thienylmethyl)thieno[3,2-b]pyridin-7-amine]
30 to 300	30 to 300	N[C@H]1CCCO[C@H]1c1sc2c(NCc3cccs3)cc(Cl)nc2c1Cl [Compound 19, 2-((2R,3S)-3-aminotetrahydro-2H-pyran-2-yl)-3,5-dichloro-N-(thiophen-2-ylmethyl)thieno[3,2-b]pyridin-7-amine]
30 to 300	30 to 300	N[C@H]1CCCC[C@@H]1c1cc2nc(Cl)cc(NCc3cccs3)c2s1 [Compound 21, 2-((1S,2S)-2-aminocyclohexyl)-5-chloro-N-(thiophen-2-ylmethyl)thieno[3,2-b]pyridin-7-amine]
300 to 1000	300 to 1000	N[C@H]1CCCC[C@H]1c1cc2nc(Cl)cc(NCc3cccs3)c2s1 [Compound 22, 2-((1R,2S)-2-aminocyclohexyl)-5-chloro-N-(thiophen-2-ylmethyl)thieno[3,2-b]pyridin-7-amine]
> 1000	> 1000	N[C@@H]1CCCC[C@H]1c1cc2nc(Cl)cc(NCc3cccs3)c2s1 [Compound 23, 2-((1R,2R)-2-aminocyclohexyl)-5-chloro-N-(thiophen-2-ylmethyl)thieno[3,2-b]pyridin-7-amine]
> 1000	> 1000	N[C@H]1CCCC[C@]1(O)c1sc2c(NCc3cccs3)cc(Cl)nc2c1Cl [Compound 31, (1R,2S)-2-amino-1-(3,5-dichloro-7-((thiophen-2-ylmethyl)amino)thieno[3,2-b]pyridin-2-yl)cyclohexan-1-ol]
30 to 300	30 to 300	N[C@H]1CCCC[C@]1(F)c1sc2c(NCc3cccs3)cc(Cl)nc2c1Cl [Compound 32, 2-((1R,2S)-2-amino-1-fluorocyclohexyl)-3,5-dichloro-N-(thiophen-2-ylmethyl)thieno[3,2-b]pyridin-7-amine]
30 to 300	30 to 300	Cc1c([C@H]2OCCC[C@@H]2N)sc2c(NCc3ccccc3F)cc(Cl)nc12 [Compound 33, 2-((2S,3S)-3-aminotetrahydro-2H-pyran-2-yl)-5-chloro-N-(2-fluorobenzyl)-3-methylthieno[3,2-b]pyridin-7-amine]
300 to 1000	30 to 300	N[C@H]1CCCC[C@]1(F)c1sc2c(NCc3ccccc3)cc(Cl)nc2c1Br [Compound 37, 2-((1R,2S)-2-amino-1-fluorocyclohexyl)-N-benzyl-3-bromo-5-chlorothieno[3,2-b]pyridin-7-amine]
30 to 300	30 to 300	N[C@H]1CCCC[C@]1(F)c1sc2c(NCc3ccco3)cc(Cl)nc2c1Cl [Compound 38, 2-((1R,2S)-2-amino-1-fluorocyclohexyl)-3,5-dichloro-N-(furan-2-ylmethyl)thieno[3,2-b]pyridin-7-amine]
30 to 300	30 to 300	Cc1c([C@@]2(F)CCCC[C@@H]2N)sc2c(NCc3ccco3)cc(Cl)nc12 [Compound 41, 2-((1R,2S)-2-amino-1-fluorocyclohexyl)-5-chloro-N-(furan-2-ylmethyl)-3-methylthieno[3,2-b]pyridin-7-amine]
> 1000	> 1000	N[C@@H]1CCCO[C@H]1c1sc2c(NCc3cccs3)cc(Cl)nc2c1Br [Compound 49, 2-((2R,3R)-3-aminotetrahydro-2H-pyran-2-yl)-3-bromo-5-chloro-N-(thiophen-2-ylmethyl)thieno[3,2-b]pyridin-7-amine]
300 to 1000	30 to 300	Cc1c([C@@H]2CCCC[C@@H]2N)sc2c(NCc3cccs3)cc(Cl)nc12 [Compound 50, 2-((1R,2S)-2-aminocyclohexyl)-5-chloro-3-methyl-N-(thiophen-2-ylmethyl)thieno[3,2-b]pyridin-7-amine]
> 1000	> 1000	Cc1c([C@H]2CCCC[C@H]2N)sc2c(NCc3cccs3)cc(Cl)nc12 [Compound 51, 2-((1S,2R)-2-aminocyclohexyl)-5-chloro-3-methyl-N-(thiophen-2-ylmethyl)thieno[3,2-b]pyridin-7-amine]
> 1000	> 1000	N[C@@H]1CCCC[C@@H]1c1sc2c(NCc3cccs3)cc(Cl)nc2c1Br [Compound 52, 2-((1S,2R)-2-aminocyclohexyl)-3-bromo-5-chloro-N-(thiophen-2-ylmethyl)thieno[3,2-b]pyridin-7-amine]
300 to 1000	300 to 1000	N[C@H]1CCCC[C@H]1c1sc2c(NCc3cccs3)cc(Cl)nc2c1Br [Compound 53, 2-((1R,2S)-2-aminocyclohexyl)-3-bromo-5-chloro-N-(thiophen-2-ylmethyl)thieno[3,2-b]pyridin-7-amine]
